This is an account of results in ChEMBL document CHEMBL5614372, “Advances in dual-targeting inhibitors of HDAC6 for cancer treatment” (Eur J Med Chem, 2024).

Each structure is given as a SMILES string.

Test [1] has as its target High affinity cGMP-specific 3',5'-cyclic phosphodiesterase 9A (Homo sapiens, UniProt O76083). The experiment in a line: Inhibition of PDE9A (unknown origin).
For test [2], the target named is Histone deacetylase 11 (Homo sapiens, UniProt Q96DB2). As to the kind of experiment: Inhibition of HDAC11 (unknown origin).
For test [3], the target named is T1, Histone deacetylase 8 (Homo sapiens, UniProt Q9BY41).
T1 sequence (Q9BY41 whole entry): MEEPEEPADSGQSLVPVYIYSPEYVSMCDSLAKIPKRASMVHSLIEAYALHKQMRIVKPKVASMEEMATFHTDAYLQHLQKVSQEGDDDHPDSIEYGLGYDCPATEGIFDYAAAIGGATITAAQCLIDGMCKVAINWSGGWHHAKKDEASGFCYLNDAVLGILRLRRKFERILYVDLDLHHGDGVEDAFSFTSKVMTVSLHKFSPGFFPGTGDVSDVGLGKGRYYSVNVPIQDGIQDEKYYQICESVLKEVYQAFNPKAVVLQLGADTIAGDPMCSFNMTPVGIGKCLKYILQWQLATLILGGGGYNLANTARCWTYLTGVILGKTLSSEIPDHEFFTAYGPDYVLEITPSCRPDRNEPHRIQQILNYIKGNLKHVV
The experiment in a line: Inhibition of HDAC8 (unknown origin).

The target of test [4] is Phosphatidylinositol 4,5-bisphosphate 3-kinase catalytic subunit beta isoform (Homo sapiens, UniProt P42338). As to the kind of experiment: Inhibition of PI3Kbeta (unknown origin).
Test [5] has as its target Phosphatidylinositol 4,5-bisphosphate 3-kinase catalytic subunit delta isoform (Homo sapiens, UniProt O00329). As to the kind of experiment: Inhibition of PI3Kdelta (unknown origin).
Test [6] concerns the target Phosphatidylinositol 4,5-bisphosphate 3-kinase catalytic subunit gamma isoform (Homo sapiens, UniProt P48736). The experiment in a line: Inhibition of PI3Kgamma (unknown origin).
Test [7] has as its target T2, Histone deacetylase 4 (Homo sapiens, UniProt P56524). As to the kind of experiment: Inhibition of HDAC4 (unknown origin).
Test [8] addresses Histone deacetylase 1 (Homo sapiens, UniProt Q13547). As to the kind of experiment: Inhibition of HDAC1 (unknown origin).
Test [9] has as its target Serine/threonine-protein kinase PAK 2 (Homo sapiens, UniProt Q13177). As to the kind of experiment: Inhibition of PAK2 (unknown origin).
In test [10] the target is Histone deacetylase 2 (Homo sapiens, UniProt Q92769). As to the kind of experiment: Inhibition of HDAC2 (unknown origin).
Sequence of Histone deacetylase 2 (Q92769 whole entry): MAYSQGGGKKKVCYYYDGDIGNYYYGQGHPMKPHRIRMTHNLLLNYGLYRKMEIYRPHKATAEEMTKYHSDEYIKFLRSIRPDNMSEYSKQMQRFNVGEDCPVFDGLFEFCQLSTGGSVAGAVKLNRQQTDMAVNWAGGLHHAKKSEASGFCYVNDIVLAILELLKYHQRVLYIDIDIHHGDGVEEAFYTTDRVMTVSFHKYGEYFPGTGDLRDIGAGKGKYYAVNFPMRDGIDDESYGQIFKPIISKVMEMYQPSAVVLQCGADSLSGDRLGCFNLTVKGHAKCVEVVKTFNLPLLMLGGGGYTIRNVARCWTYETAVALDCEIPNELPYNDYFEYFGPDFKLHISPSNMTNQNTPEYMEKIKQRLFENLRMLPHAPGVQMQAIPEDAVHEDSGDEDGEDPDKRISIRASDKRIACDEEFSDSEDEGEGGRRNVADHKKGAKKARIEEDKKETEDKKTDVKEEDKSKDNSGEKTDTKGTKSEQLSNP
Test [11] deals with T3, Histone deacetylase 3 (Homo sapiens, UniProt O15379). The experiment in a line: Inhibition of HDAC3 (unknown origin).
T3 sequence (O15379 whole entry): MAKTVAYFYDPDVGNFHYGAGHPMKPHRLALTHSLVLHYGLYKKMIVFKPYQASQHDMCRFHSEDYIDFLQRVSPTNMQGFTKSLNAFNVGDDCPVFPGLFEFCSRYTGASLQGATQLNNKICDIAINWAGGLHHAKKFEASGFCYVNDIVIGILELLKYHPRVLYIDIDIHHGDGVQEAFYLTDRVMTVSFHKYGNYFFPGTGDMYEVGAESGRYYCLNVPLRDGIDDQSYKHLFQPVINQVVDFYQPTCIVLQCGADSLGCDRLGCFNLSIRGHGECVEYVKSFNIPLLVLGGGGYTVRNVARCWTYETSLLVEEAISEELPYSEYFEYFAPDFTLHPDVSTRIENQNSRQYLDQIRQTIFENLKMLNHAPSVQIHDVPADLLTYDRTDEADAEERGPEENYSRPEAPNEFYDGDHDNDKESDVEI
Test [12] has as its target Serine/threonine-protein kinase PAK 3 (Homo sapiens, UniProt O75914). As to the kind of experiment: Inhibition of PAK3 (unknown origin).
Test [13] concerns the target T4, Protein deacetylase HDAC6 (Homo sapiens, UniProt Q9UBN7).
T4 sequence (Q9UBN7 whole entry): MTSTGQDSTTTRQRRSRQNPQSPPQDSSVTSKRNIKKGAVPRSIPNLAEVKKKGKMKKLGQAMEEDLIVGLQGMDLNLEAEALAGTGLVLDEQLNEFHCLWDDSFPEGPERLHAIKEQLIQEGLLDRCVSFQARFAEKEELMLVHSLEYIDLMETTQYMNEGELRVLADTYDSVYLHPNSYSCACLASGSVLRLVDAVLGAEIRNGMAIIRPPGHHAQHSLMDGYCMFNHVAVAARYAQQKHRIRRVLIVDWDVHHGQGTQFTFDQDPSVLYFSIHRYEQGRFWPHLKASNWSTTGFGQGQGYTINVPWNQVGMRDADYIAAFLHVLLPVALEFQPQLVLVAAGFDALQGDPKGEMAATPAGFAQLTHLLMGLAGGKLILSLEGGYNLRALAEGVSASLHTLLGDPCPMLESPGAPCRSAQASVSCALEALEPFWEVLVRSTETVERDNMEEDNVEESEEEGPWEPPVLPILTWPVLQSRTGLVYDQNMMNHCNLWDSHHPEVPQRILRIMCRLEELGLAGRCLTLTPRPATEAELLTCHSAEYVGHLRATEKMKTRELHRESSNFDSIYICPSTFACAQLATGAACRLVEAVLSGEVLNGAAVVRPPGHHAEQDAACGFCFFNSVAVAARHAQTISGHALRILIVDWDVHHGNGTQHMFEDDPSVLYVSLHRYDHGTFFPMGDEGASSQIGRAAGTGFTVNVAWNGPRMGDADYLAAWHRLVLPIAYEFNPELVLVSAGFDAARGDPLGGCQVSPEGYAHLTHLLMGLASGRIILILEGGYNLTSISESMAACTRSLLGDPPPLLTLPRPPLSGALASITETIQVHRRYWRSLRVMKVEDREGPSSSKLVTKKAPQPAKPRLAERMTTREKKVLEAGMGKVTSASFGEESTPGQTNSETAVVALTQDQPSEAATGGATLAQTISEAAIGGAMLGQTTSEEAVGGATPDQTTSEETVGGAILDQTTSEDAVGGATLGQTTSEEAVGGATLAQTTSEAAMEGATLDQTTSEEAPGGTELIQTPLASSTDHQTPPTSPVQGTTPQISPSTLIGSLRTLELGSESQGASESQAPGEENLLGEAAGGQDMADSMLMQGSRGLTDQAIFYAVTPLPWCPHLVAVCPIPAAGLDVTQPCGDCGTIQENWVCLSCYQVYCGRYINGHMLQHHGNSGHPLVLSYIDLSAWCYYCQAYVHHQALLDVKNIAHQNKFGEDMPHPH
As to the kind of experiment: Inhibition of HDAC6 (unknown origin).

In test [14] the target is Serine/threonine-protein kinase PAK 1 (Homo sapiens, UniProt Q13153). The experiment in a line: Inhibition of PAK1 (unknown origin).
Test [15] has as its target Steroid 17-alpha-hydroxylase/17,20 lyase (Homo sapiens, UniProt P05093). As to the kind of experiment: Inhibition of CYP17A1 (unknown origin). The test is classed as ADME.
Test [16] deals with A549. The experiment in a line: Antitumor activity against human A549 cells xenografted in BALB/c nude mouse assessed as inhibition of tumor growth at 20 mg/kg, ip administered once daily for 21 days relative to control. The test is classed as functional. On the set-up: scale not given: the % may be the effect or the level left. As to conditions: time 21 day. On the technique in general: A xenograft is tissue or cells of one species grown in another, often human tumour cells in immunodeficient mice.

The target of test [17] is T4, Protein deacetylase HDAC6. The experiment in a line: Inhibition of HDAC6 (unknown origin) extracted from baculovirus infected Sf9 insect cells using fluorescent peptide p53 (379 to 382 residues) RHKK(Ac)AMC as substrate by fluorescence based analysis.
Test [18] concerns the target ALK tyrosine kinase receptor (Homo sapiens, UniProt Q9UM73). The experiment in a line: Inhibition of ALK (unknown origin) using poly[Glu:Tyr] (4:1) as substrate incubated for 2 hrs by [gamma-33P]ATP assay.
The target of test [19] is Estrogen receptor beta (Homo sapiens) (UniProt Q92731). As to the kind of experiment: Binding affinity to ERbeta (unknown origin) assessed as relative binding affinity by fluorescence polarization assay relative to control.
Sequence of Estrogen receptor beta (Homo sapiens) (Q92731 whole entry): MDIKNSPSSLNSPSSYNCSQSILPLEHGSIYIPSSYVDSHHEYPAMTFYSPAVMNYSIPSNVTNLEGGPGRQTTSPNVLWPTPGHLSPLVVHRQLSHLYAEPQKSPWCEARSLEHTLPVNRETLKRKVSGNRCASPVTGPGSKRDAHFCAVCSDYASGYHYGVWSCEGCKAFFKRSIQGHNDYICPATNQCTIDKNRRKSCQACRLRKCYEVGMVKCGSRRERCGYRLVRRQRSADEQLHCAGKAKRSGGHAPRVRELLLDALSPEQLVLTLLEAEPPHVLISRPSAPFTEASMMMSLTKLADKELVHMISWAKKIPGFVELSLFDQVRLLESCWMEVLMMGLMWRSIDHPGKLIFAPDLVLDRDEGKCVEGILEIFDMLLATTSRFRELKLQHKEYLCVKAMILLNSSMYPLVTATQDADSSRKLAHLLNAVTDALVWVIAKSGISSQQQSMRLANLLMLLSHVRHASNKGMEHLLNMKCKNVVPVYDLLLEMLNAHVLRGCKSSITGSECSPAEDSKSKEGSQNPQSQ
Test [20] concerns the target Estrogen receptor (Homo sapiens) (UniProt P03372). As to the kind of experiment: Binding affinity to ERalpha (unknown origin) assessed as relative binding affinity by fluorescence polarization assay relative to control. For orientation: Fluorescence polarisation rises when a labelled molecule tumbles more slowly, as on binding a larger partner.
The target of test [21] is cGMP-specific 3',5'-cyclic phosphodiesterase (Homo sapiens, UniProt O76074). The experiment in a line: Inhibition of PDE5A (unknown origin).
The target of test [22] is Glutamate [NMDA] receptor (Homo sapiens) (UniProt Q05586+Q12879+Q13224+O15399+O60391+Q14957+Q8TCU5). The experiment in a line: Inhibition of NMDA receptor (unknown origin) at 10 uM relative to control. The test is classed as protein-complex assay.
Test [23] deals with Histone deacetylase 9 (Homo sapiens, UniProt Q9UKV0). The experiment in a line: Inhibition of HDAC9 (unknown origin).
In test [24] the target is T5, Histone deacetylase 7 (Homo sapiens, UniProt Q8WUI4). The experiment in a line: Inhibition of HDAC7 (unknown origin).
In test [25] the target is Glutamate [NMDA] receptor. The experiment in a line: Binding affinity to NMDA receptor (unknown origin) assessed as inhibition constant. The test is classed as protein-complex assay, Homo sapiens.
The target in test [26] is T6, Histone deacetylase 5 (Homo sapiens, UniProt Q9UQL6). As to the kind of experiment: Inhibition of HDAC5 (unknown origin).
T6 sequence (Q9UQL6 whole entry): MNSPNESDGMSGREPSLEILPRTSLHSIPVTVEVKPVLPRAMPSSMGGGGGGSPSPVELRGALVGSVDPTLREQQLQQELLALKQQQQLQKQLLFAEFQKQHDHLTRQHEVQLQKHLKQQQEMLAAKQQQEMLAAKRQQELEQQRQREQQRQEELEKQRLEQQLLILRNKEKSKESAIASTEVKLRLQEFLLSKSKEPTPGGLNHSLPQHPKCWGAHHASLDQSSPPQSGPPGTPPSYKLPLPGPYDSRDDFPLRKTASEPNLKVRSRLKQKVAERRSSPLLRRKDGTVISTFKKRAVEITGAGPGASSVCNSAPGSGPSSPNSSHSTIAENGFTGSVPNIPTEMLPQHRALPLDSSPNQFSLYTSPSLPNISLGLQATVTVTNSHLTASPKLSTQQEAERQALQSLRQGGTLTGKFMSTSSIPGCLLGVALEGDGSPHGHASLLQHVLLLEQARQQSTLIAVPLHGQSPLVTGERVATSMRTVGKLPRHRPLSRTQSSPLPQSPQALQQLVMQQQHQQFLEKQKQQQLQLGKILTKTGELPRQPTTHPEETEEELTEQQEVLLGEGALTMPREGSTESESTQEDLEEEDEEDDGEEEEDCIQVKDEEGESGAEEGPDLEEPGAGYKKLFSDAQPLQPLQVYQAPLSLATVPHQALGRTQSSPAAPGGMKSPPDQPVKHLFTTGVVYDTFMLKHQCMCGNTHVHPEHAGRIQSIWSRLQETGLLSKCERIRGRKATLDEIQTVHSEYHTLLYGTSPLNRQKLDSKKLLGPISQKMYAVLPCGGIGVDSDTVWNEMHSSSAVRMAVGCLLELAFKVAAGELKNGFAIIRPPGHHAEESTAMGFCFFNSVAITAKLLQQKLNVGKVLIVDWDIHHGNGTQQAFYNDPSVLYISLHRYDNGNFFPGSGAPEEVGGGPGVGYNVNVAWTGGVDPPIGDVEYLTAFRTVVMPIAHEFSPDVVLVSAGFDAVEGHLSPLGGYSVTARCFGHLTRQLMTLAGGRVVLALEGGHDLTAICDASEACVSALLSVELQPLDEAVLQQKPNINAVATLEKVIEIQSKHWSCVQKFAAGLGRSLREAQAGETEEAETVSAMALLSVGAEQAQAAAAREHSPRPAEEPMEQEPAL
Test [27] can be described thus: Inhibition of HSP90 (unknown origin) by fluorescence polarization assay. Also noted: species or system Homo sapiens.
For test [28], the target named is T4, Protein deacetylase HDAC6. As to the kind of experiment: Inhibition of human recombinant HDAC6 using fluorogenic HDAC substrate incubated for 20 mins by fluorescence based assay.
Test [29] addresses Serine/threonine-protein kinase B-raf (Homo sapiens, UniProt P15056). As to the kind of experiment: Inhibition of wild type B-RAF (unknown origin).
Test [30] addresses T3, Histone deacetylase 3. The experiment in a line: Inhibition of human recombinant HDAC3 using fluorogenic HDAC substrate incubated for 20 mins by fluorescence based assay.
Test [31] has as its target T5, Histone deacetylase 7. As to the kind of experiment: Inhibition of human recombinant HDAC7 using fluorogenic HDAC substrate incubated for 20 mins by fluorescence based assay.
The target in test [32] is T6, Histone deacetylase 5. The experiment in a line: Inhibition of human recombinant HDAC5 using fluorogenic HDAC substrate incubated for 20 mins by fluorescence based assay.
For test [33], the target named is T2, Histone deacetylase 4. As to the kind of experiment: Inhibition of human recombinant HDAC4 using fluorogenic HDAC substrate incubated for 20 mins by fluorescence based assay.

T2 sequence (P56524 whole entry): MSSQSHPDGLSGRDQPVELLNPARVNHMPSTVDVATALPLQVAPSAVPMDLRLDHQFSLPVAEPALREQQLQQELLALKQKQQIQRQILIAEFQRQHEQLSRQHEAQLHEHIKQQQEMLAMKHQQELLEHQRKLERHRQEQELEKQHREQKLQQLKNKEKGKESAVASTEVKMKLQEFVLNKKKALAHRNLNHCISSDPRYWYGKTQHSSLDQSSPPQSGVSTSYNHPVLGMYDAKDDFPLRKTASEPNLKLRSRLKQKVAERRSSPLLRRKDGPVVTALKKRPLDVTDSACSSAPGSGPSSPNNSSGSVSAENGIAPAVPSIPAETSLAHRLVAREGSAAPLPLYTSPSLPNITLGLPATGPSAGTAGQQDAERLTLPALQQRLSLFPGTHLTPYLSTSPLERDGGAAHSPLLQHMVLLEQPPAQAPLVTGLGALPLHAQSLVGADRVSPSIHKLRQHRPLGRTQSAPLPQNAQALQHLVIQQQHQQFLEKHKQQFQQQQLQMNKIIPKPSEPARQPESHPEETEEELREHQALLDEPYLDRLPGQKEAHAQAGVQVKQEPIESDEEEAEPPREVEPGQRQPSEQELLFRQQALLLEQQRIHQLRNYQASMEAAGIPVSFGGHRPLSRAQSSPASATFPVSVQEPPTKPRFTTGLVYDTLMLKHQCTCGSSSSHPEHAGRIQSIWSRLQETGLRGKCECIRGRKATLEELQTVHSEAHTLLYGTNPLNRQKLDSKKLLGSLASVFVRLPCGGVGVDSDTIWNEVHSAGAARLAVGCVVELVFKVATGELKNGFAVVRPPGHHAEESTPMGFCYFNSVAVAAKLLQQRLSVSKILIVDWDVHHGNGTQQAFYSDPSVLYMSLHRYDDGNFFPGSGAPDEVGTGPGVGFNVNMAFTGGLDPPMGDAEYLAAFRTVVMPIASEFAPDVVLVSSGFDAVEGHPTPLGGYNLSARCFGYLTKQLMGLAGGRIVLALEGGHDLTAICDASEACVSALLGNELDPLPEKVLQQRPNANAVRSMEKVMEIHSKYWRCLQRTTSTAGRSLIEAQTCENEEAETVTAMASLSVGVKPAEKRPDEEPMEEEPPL
Sequence of Histone deacetylase 1 (Q13547 whole entry): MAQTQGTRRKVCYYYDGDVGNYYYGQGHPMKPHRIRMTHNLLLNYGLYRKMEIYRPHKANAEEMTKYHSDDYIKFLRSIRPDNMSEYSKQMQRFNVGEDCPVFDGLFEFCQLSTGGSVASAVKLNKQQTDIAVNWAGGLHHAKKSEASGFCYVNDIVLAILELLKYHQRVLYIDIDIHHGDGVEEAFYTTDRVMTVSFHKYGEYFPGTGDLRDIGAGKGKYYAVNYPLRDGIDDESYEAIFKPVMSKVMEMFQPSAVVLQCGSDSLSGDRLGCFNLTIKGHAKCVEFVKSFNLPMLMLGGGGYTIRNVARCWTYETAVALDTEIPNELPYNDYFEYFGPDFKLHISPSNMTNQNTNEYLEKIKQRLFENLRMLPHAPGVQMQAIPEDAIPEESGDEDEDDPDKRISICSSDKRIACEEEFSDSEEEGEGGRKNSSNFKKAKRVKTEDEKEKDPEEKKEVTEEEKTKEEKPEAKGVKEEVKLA
Sequence of High affinity cGMP-specific 3',5'-cyclic phosphodiesterase 9A (O76083 whole entry): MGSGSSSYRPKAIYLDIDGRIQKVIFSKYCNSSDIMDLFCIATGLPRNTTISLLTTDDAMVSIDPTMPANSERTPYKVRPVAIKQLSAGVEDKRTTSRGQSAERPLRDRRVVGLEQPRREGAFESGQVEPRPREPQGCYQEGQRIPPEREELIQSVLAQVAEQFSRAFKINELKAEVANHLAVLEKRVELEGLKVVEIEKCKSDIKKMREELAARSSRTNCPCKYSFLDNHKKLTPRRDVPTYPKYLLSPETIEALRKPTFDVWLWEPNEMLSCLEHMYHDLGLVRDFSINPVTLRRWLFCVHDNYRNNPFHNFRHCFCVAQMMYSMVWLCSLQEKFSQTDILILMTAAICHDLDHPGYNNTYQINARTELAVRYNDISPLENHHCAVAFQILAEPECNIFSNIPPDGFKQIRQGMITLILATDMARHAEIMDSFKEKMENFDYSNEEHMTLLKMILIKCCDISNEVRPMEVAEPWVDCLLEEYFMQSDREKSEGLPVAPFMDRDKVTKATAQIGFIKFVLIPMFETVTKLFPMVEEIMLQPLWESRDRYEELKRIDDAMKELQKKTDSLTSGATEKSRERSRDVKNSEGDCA

Consider `C[C@H](c1nc2c(cnn2C2CCCC2)c(=O)[nH]1)N1CC(Oc2ncccn2)C1`, for which, in test [1], the IC50 stood at 32 nM.
With `O=C(NO)c1ccc(/C=N/NC(=O)c2cc(N3CCOCC3)nc(-c3cccc(O)c3)n2)cc1`, the IC50 in test [2] was above 3000 nM; in test [3], 67.6 nM; in [4], 72.8 nM; in test [5], 72.4 nM; in test [6], 1300 nM; in [7], above 3000 nM. The molecule further yielded an IC50 in test [8] above 3000 nM.
In the case of `O=C(CCCCCn1c(=O)c(-c2ccc(Cl)cc2Cl)cc2cnc(NC3CC3)nc21)NO`, the IC50 in test [9] is 193 nM; in test [3] it was 190 nM; in [10] it was 157 nM; in [11], 177 nM; in test [12] it was 441 nM; in test [8], 233 nM. The IC50 came out at 38.2 nM in test [13] and 13.6 nM in test [14].
For `C[C@]12CC[C@H](OC(=O)CCCCCC(=O)NO)CC1=CCC1C2CC[C@]2(C)C(c3cccnc3)=CCC12` (some centres not stated), the values for the half-maximal inhibitory concentration (IC50) in test [3], in test [15] and in test [13] were above 10000 nM, 284 nM and 600 nM, respectively.
As for `CC(C)NC(=O)[C@H]1CC[C@@H](n2/c(=N/C(=O)c3ccccc3)[nH]c3cc(/C=C/C(=O)NO)ccc32)CC1`, the Activity in [16] is recorded as 80%. Also, the IC50 in [17] was 1030 nM; in [18] it was 16 nM.
In the case of `N#CC(C#N)=C1C=C(/C=C/c2ccc(O)c(NC(=O)CCCCCCC(=O)NO)c2)Oc2ccccc21`, the RBA was determined as 0.25% in test [19] and 0.005% in test [20].
For the molecule `C[C@@H]1CN(Cc2ccc(C(=O)NO)cc2)C[C@H]1c1nc2c(cnn2C2CCOCC2)c(=O)[nH]1`, the IC50 was above 10000 nM in [21]; 3530 nM in test [10]; 107 nM in [1]; 593 nM in test [8]; 40 nM in [13].
As to `CC12CC3CC(C)(C1)CC(NC(=O)/C=C/c1ccc(C(=O)NO)cc1)(C3)C2`, the IC50 in test [3] was 620 nM; in test [10], 8000 nM; in test [11], 2210 nM; in test [7], above 10000 nM; in [23], above 10000 nM; in [24] it was above 10000 nM. Further, the half-inhibitory concentration (IC50) in test [26] was above 10000 nM; in test [8] it was 2670 nM. This molecule registered an inhibition in test [22] of 64.4%. For the same molecule, the Ki in [25] is 560 nM.
In test [27], `CC(C)c1cc(C(=O)N(C)Cc2ccc(C(=O)NO)cc2)c(O)cc1O` yielded an IC50 of 61 nM.
In the case of `CCCCN(Cc1ccc(C(=O)NO)cc1)C(=O)CCCCn1cc(COc2cccc(Cc3cnc(NC(=O)CSc4nc(C)cc(C)n4)s3)c2)nn1`, inhibition in test [11] was half-maximal at 2500 nM (IC50).
For `CC(C)(C)c1nc(-c2cccc(NS(=O)(=O)c3c(F)cccc3F)c2F)c(-c2ccnc(NCCCCCCC(=O)NO)n2)s1`, the IC50 in test [28] was 50 nM; in test [29], 4 nM; in [30] it was 930 nM; in test [31], 3000 nM; in [32], above 52800 nM; in test [33], above 100000 nM.

The term IC50 denotes the concentration that gives 50% inhibition. A word on the inhibition: it is the percentage by which the read-out fell short of the control. For orientation: Ki means a dissociation constant, usually derived from enzyme kinetics or from competition with a known ligand.
